Literature values, collected in US7435726B2, “Compositions and methods for the treatment of cancer” (Celgene Corporation, priority 2001, dated 2008).

Settings: irinotecan monotherapy, expected frequency

For `CCc1c2c(nc3ccc(OC(=O)N4CCC(N5CCCCC5)CC4)cc13)-c1cc3c(c(=O)n1C2)COC(=O)[C@]3(O)CC` [Irinotecan, (4S)-4,11-diethyl-4-hydroxy-9-[(4-piperidino-piperidino)carbonyl-oxy]1H-pyranol-[3′,4′:6,7]indolizinol[1,2-b]quinoline-3,14-(4H,12H)dione], the “Abdominal colic/pain, Expected (%) Grade 1-4” value is listed as 23.7%, the “Abdominal colic/pain, Expected (%) Grade 3-4” value is listed as 2.3% and the “Asthenia, Expected (%) Grade 1-4” value is listed as 75.7%. The “Asthenia, Expected (%) Grade 3-4” value was 12.2%, the “Constipation, Expected (%) Grade 1-4” value was 29.9% and the “Constipation, Expected (%) Grade 3-4” value was 2.0%. The “Diarrhea (Late), Expected (%) Grade 1-4” value was 87.8%, the “Diarrhea (Late), Expected (%) Grade 3-4” value was 30.6% and the “Nausea, Expected (%) Grade 1-4” value was 86.2%. For the same compound, the “Vomiting, Expected (%) Grade 1-4” value was 66.8% and the “Vomiting, Expected (%) Grade 3-4” value was 12.5%.
